Tests used:
[1] = Bonding of two moist fingertips by monomer; settings: very small amount of monomer placed between two moist fingertips
[2] = Lap shear testing using pig skin; settings: 1/2" x 1" overlap, about 100 μl adhesive, cure 20~30 min, Instron pulling rate 5 mm/min, about 10 joints
Method: General Procedure for Lap Shear Testing Using Pig Skin
Fresh pig skin was harvested from the back of the pig within 5 hours post sacrifice. The hair was removed by trimming and shaving to expose a smooth skin surface. The fat attached to the inside skin surface was trimmed away. The skin was cut into 2″×1″ coupons and covered by saline moist paper towel before use.
The external surface of the skin was used as bonding surface to prepare the lap shear joint samples.
The coupons were patted dry prior to forming the lap shear joint. About 1 00 μl of adhesive was deposited to one coupon within ½″ from the nearer end and smoothed to cover a ½″×1″ area (FIG. 1). The other coupon was placed over the area of the coupon with applied adhesive to form an overlap of ½″×1″. A 1 lb weight was placed on top of the overlap area. The joint was allowed to cure for 20˜30 min and the strength of the joint was tested as described below.
The strength of the cured joint was tested using an Instron (Model 5544) with a pulling rate of 5 mm/min. The maximum load for the joint to fail was recorded.
Typically, about 10 joint samples were tested for each adhesive.

[3] = Glass transition temperature of polymer film; type: physicochemical; settings: adhesive polymer formed from the monomer
Method: A 1″×1″ Prolene mesh (Ethicon, Inc.) was briefly rinsed with 0.5% wt NaHCO3 aqueous solution and patted dry. The mesh was placed on a freshly prepared Agar plate in a petri dish and about 100 mg of monomer adhesive was applied and spread evenly across the mesh. The monomer adhesive was allowed to cure completely overnight with the petri dish covered and sealed with parafilm. The fully cured polymer film formed over the mesh was removed and rinsed with deionized water to remove any Agar attached and patted dry with paper towel. The thickness of the polymer film was about 0.6 mm.

Glass Transition Temperature (Tg, ° C.) [3] [°C] | SMILES | Bonding of fingertips [1] | Load (maximum load for the lap shear joint to fail) [2] [Ib]
 | C=C(C#N)C(=O)OC(CCCC)C(=O)OCC (stereo not drawn) [Et-α-CPL-CA, 2-(2-Cyano-acryloyloxy)-hexanoic acid ethyl ester] |  | 1.26 ± 0.29
−11 | C=C(C#N)C(=O)OC(CCC)CC(=O)OCC (stereo not drawn) [Et-β-CPL-CA, 3-(2-Cyano-acryloyloxy)-hexanoic acid ethyl ester] | bonded the fingertips strongly within one minute | 4.49 ± 0.68
32 | C=C(C#N)C(=O)OC(C)CC(=O)OCC (stereo not drawn) [Et-β-HBT-CA, 3-(2-Cyano-acryloyloxy)-butyric acid ethyl ester] | bonded the fingertips strongly within one minute | 4.09 ± 0.48
 | C=C(C#N)C(=O)OCCCCCC(=O)OCC [Et-ε-CPL-CA, 6-(2-Cyano-acryloyloxy)-hexanoic acid ethyl ester] |  | 3.68 ± 0.64

SMILES | Glass Transition Temperature (Tg, ° C.) [3] [°C] | Bonding of fingertips [1] | Load (maximum load for the lap shear joint to fail) [2] [Ib]
C=C(C#N)C(=O)OC(C)C(=O)OCCCC (centres unmarked) [Bu-Lac-CA, 2-Cyano-acrylic acid 1-butoxycarbonyl-ethyl ester, reference compound] | 52 | bonded the fingertips strongly within one minute | 4.96 ± 0.67
